Legend:
[1] = system: mTORC1 activity (S240/244pS6) in skeletal muscle; assay: PD study: feeding-induced mTORC1 activation in gastrocnemius muscle; assay type: in vivo, mouse; settings: mice fasted 16 h, 30 mg kg^−1 IP, re-fed 2 h
Description: The selective inhibition of mTORC1 activation by NR1 in vitro and in cell-based systems prompted us to evaluate the effect of this compound on mTORC1 activity in vivo. […] In particular, the plasma concentration of NR1 was sustained over 5 µM for 2 h after IP administration of a 30 mg kg^−1 dose (Supplementary Fig. 10). We therefore carried out a pharmacodynamic (PD) study to evaluate the efficacy of NR1 at inhibiting mTORC1 signaling in vivo. In this experiment, mice were starved overnight to achieve a low basal level of mTORC1 activation (pre-dose). After a 16 h fast, the animals were treated with either vehicle or 30 mg kg^−1 NR1 and allowed to re-feed for 2 h before sacrifice and tissue collection. mTORC1 activity was measured by quantification of ^S240/244pS6 by Western blot analysis with a specific antibody. We chose kidney and gastrocnemius muscle as target tissues due to the relevance of mTORC1 in renal cell carcinoma[51] and angiomyolipomas in TSC and LAM[12] and for its important role in the regulation of protein synthesis and muscle mass[52]. The results are summarized in Fig. 6 for skeletal muscle and Supplementary Fig. 11 for kidney.
Fig. 6 NR1 inhibits feeding-induced mTORC1 activation in skeletal muscle. […] After 2 h, gastrocnemius muscle was collected, and ^S240/244pS6 levels were measured by Western blot and quantified. […]

[2] = target: T1, human Rheb protein (1–169) (Homo sapiens, UniProt Q15382); assay: Isothermal calorimetry (ITC) of binding to Rheb
T1 construct: human Rheb protein (1–169) was purified from BL21 (DE3) Escherichia coli; His-Smt (His-SUMO) (N, cleaved yes); made in house; host or cells: BL21 (DE3) Escherichia coli
T1 sequence (Q15382 1-169): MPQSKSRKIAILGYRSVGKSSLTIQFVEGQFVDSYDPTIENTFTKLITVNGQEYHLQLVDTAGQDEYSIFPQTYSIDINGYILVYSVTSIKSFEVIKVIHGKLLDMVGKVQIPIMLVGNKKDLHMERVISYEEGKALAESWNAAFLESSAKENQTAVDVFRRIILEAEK
Description: For the STD-NMR fragment-based screen, HMQC-NMR, ITC, and crystallography, human Rheb protein (1–169) was purified from BL21 (DE3) Escherichia coli using a His-Smt-Rheb expression vector. The cell paste was lysed in lysis buffer (50 mM HEPES pH 7.5, 0.5 M NaCl, 5% Glycerol, 1% CHAPS, EDTA-free protease inhibitor tablets, lysozyme to 1 mg mL^−1, benzonase 250 U), sonicated, and purified on a HiTrap Ni Chelating Column (GE Healthcare) using the following buffer: 50 mM HEPES pH 7.5, 0.5 M NaCl, 5% Glycerol, and imidazole increasing in concentration from 5 mM to 500 mM. The His-Smt tag was cleaved using a Ulp1 enzyme and dialyzed into 50 mM HEPES pH 7.5, 0.5 M NaCl, 5% glycerol. The resultant protein was again purified on a Ni Chelating column to remove the Ulp1 enzyme and His-Smt tag and then purified by size exclusion chromatography on a Sephacryl S-100 26/60 column into the following final buffer: 20 mM NaPhos pH 7.0, 100 mM NaCl, 5 mM MgCl2, 2 mM TCEP. For HMQC NMR, ^15N-labeled Rheb was generated using the same protocol but grown in minimal medium supplemented with ^15N-labeled amino acids.
Supplementary Figure 8. Measurement of binding constant of NR1 with Rheb using isothermal
(1 picture or pasted object on this page, not shown here)

**Q.** For `CN(C)C(=O)c1ccc(Cn2c(C(=O)O)cc3c(Br)cc(Sc4ccc(Cl)c(Cl)c4)cc32)cc1` [NR1, 4-bromo-6-(3,4-dichlorophenylthio)-1-(4-(dimethylcarbamoyl)benzyl)-1H-indole-2-carboxylic acid], which “T37/46 4E-BP1 in skeletal muscle” value [1] is on record?
**A.** The value was “clear band shift”.

**Q.** What about the “mTORC1 activity (S240/244pS6) in skeletal muscle versus vehicle” value [1] of the same compound?
**A.** The value was “significantly reduced mTORC1 activity”.

**Q.** What about the Kd [2] of the same compound?
**A.** The Kd was 1500 nM.

**Q.** What about the ΔH of binding [2] of the same compound?
**A.** The ΔH of binding was “–0.315 kcal mol^−1”.
